Measured values reported in patent US5576355A, “Diamondoid derivatives for pharmaceutical use” (priority 1993, dated 1996).
“Also recorded” adds a separate entry of the source. Like-named read-outs stand apart in the source and are kept apart here.

How the values were obtained:
Influenza Viruses = details: cited from earlier work
HIV-1 = assay: Anti-HIV testing under the rigorous conditions of the examples (strain not stated); details: high virus load, words
HIV-1/MN [1] = assay: Anti-HIV assay (MTT, protection from cytopathic effect), pre- or post-infection, HIV-1/MN; type: cell-based; on MN Post-Infection: key: ++++: significant and reproducible inhibition of cytopathic effect; +++: significant and reproducible inhibition of cytopathic effect; +: noticeable but minimal protection; ---: no protective effect was observed; --: no protective effect was observed; -: no protection was observed but some changes in the cell culture occurred
HIV-1/MN [2] = assay: Virus neutralization assay (MTT), HIV-1MN; type: cell-based; on MN Neutralization: key: ++++: significant and reproducible inhibition of cytopathic effect; +++: significant and reproducible inhibition of cytopathic effect; +: noticeable but minimal protection; ---: no protective effect was observed; --: no protective effect was observed; -: no protection was observed but some changes in the cell culture occurred
MT-2 cells = assay: MTT dye reduction cytotoxicity assay, 5 days
Protocol: The MT-2 cell line was grown and maintained in RPMI 1640 containing 10% fetal calf serum and antibiotics.
Precisely, when the MT-2 cells were in log phase and 2×10^4 cells were distributed in each well along with separate 100 μl aliquots of diluted test compounds. The test compounds were soluble in ethyl alcohol (EtOH). Ethanol and medium were incubated in some wells with the cells as an ethanol control. A cell control was also included (wells containing only cells and medium). The plates were incubated for 5 days at 37° C. in 5% CO2 and humidified conditions. Cell viability was determined in each well by the MTT assay. The OD570 (optical density at 570 nm) of cells without test compound was taken as 0% killing and was compared to the OD570 of cells with test compound. The toxicity profile for different compounds was then scored. In the MTT dye reduction assay toxicity was indicated as yellow in the wells, with blue color indicating the compound was non-toxic.

HIV-1MN induced syncytia = assay: Syncytia inhibition, HIV-1MN
VP6 primary HIV isolate = assay: Anti-HIV assay (MTT), pre- or post-infection, VP6 isolate; details: words
[3] = system: AZT resistant strain (AZTR) of HIV-1; assay: Anti-HIV assay (MTT), pre- or post-infection, AZT resistant strain; details: words
[4] = HIV-1/MN, virus pre-mixed with compound 1 hour

NC12CC3CC(CC(C3)C1)C2 [Amantadine]
concentration at which viral entry into the cell is non-specifically inhibited (Influenza Viruses; altering the pH of the endocytic vesicle): > 0.5 mM | concentration of selective strain-specific inhibition of virus assembly (Influenza Viruses; lower concentration): about 5 μM

O=C1C2CC3C4CC5CC3C(C2=O)C(C5)C14 [diamantane-3,5-dione]
activity under the rigorous testing conditions (HIV-1): ineffective

O=C(O)CNC1C2CC3CC(C2)CC1C3 (stereo not shown) [Compound 5, N-2-adamantyl glycine]
MN Pre-Infection (HIV-1/MN [1]; HIV-1/MN, cells pretreated 1 hour): - | MN Post-Infection (HIV-1/MN [1]; HIV-1/MN, post-infection): +++ | effect in post-infection assay (HIV-1/MN [1]; post-infection, words): effective | MN Neutralization (HIV-1/MN [2]; [4]): - | Toxicity at 5 μg/ml (MT-2 cells): - | Toxicity at 50 μg/ml (MT-2 cells): - | Toxicity at 500 μg/ml (MT-2 cells): - | Toxicity at .5 μg/ml (MT-2 cells): -

O=C1C2CC3CC(C2)CC1C3 [2-adamantanone, reference compound]
activity under the rigorous testing conditions (HIV-1): ineffective

C[N+](C)(C)CCC[N+](C)(C)C1C2CC3C4CC5CC3C1C(C5)C4C2 (stereo not shown) [Compound 3, N-3-diamantyl-N,N,N',N',N'-pentamethyl propane-1,3-bis ammonium diiodide]
MN Post-Infection (HIV-1/MN [1]; HIV-1/MN, post-infection): +++ | effect in both pre-infection and post-infection assays (HIV-1/MN [1]; HIV-1MN, words): effective | effect in pre-infection (pretreatment) assay (HIV-1/MN [1]; MN, pre-infection, words): effective | effect in post-infection assay (HIV-1/MN [1]; post-infection, words): effective | MN Neutralization (HIV-1/MN [2]; [4]): +++ | effect in neutralization assay (HIV-1/MN [2]; neutralization, words): effective | Toxicity at 5 μg/ml (MT-2 cells): - | Toxicity at 50 μg/ml (MT-2 cells): - | Toxicity at .5 μg/ml (MT-2 cells): -

OC12CC3(O)CC(O)(C1)CC(O)(C2)C3 [Compound 1, 1,3,5,7-tetrahydroxyadamantane]
MN Post-Infection (HIV-1/MN [1]; HIV-1/MN, post-infection): +++ | effect in both pre-infection and post-infection assays (HIV-1/MN [1]; HIV-1MN, words): effective | effect in pre-infection (pretreatment) assay (HIV-1/MN [1]; MN, pre-infection, words): effective | effect in post-infection assay (HIV-1/MN [1]; post-infection, words): effective | effect in neutralization assay (HIV-1/MN [2]; neutralization, words): effective | Toxicity at 5 μg/ml (MT-2 cells): - | Toxicity at 50 μg/ml (MT-2 cells): - | Toxicity at 500 μg/ml (MT-2 cells): - | Toxicity at .5 μg/ml (MT-2 cells): -

O=C1C2CC3C4CC5CC3C1C(C5)C4C2 [Compound 6, 3-diamantanone]
MN Post-Infection (HIV-1/MN [1]): ++++ | MN Pre-Infection (HIV-1/MN [1]): +++ | effect in both pre-infection and post-infection assays (HIV-1/MN [1]): effective; also recorded: active | effect in post-infection assay (HIV-1/MN [1]): effective | effect in pre-infection (pretreatment) assay (HIV-1/MN [1]): effective | MN Neutralization (HIV-1/MN [2]): +++ | effect in neutralization assay (HIV-1/MN [2]): effective; also recorded: active | inhibition of HIV-1MN induced syncytia at 10 μg/ml (HIV-1MN induced syncytia; 10 μg/ml, FIG. 2): completely inhibit | Toxicity at 5 μg/ml (MT-2 cells): - | Toxicity at 50 μg/ml (MT-2 cells): - | Toxicity at .5 μg/ml (MT-2 cells): - | inhibition of virus replication, VP6 clinical isolates (VP6 primary HIV isolate; both pre- and post-infection): inhibited virus replication | inhibition of clinical isolates (VP6 primary HIV isolate): shown to inhibit | inhibition of virus replication, AZT resistant strains ([3]; both pre- and post-infection): inhibited virus replication | inhibition of AZT resistant isolates [3]: shown to inhibit

O=C1C2CC3CC(C2)C(=O)C1C3 [Compound 7, 2,4-adamantanedione]
MN Post-Infection (HIV-1/MN [1]; HIV-1/MN, post-infection): - | effect in pre-infection (pretreatment) assay (HIV-1/MN [1]; MN, pre-infection, words): effective; also recorded: inhibited viral cytopathic effect | pretreatment compared with post-infection treatment (HIV-1/MN [1]; words): pretreatment is more effective than post-infection treatment | effect in neutralization assay (HIV-1/MN [2]; neutralization, words): effective | inhibition of syncytia formation (HIV-1MN induced syncytia; concentration not given): substantially eliminate syncytia formation | Toxicity at 5 μg/ml (MT-2 cells): - | Toxicity at 50 μg/ml (MT-2 cells): - | Toxicity at 500 μg/ml (MT-2 cells): - | Toxicity at .5 μg/ml (MT-2 cells): - | inhibition of CPE of HIV, VP6 isolate (VP6 primary HIV isolate; pre-infection): inhibited CPE of HIV | inhibition of clinical isolates (VP6 primary HIV isolate): shown to inhibit | inhibition of CPE of HIV, AZT resistant isolate ([3]; pre-infection): inhibited CPE of HIV | inhibition of AZT resistant isolates [3]: shown to inhibit

O=C1C2CC3CC1CC(O)(C3)C2 [5-hydroxy-2-adamantanone]
activity under the rigorous testing conditions (HIV-1): ineffective

C[N+](C)(C)CCC[N+](C)(C)C1C2CC3CC(C2)CC1C3 (stereo not shown) [N-(2-adamantyl)-N,N,N',N',N'-pentamethyl-propane-1,3-bis ammonium diodide]
activity under the rigorous testing conditions (HIV-1): ineffective

O=C1C2CC3CC1CC(C2)C3=O [adamantane-2,6-dione]
activity under the rigorous testing conditions (HIV-1): ineffective

O[C@@H]1[C@@H]2C[C@H]3C[C@@H](C2)C2(OCCO2)[C@@H]1C3 (relative stereo) [Compound 8, 4(e)-hydroxy-2-adamantanone ethylene glycol ketal]
MN Post-Infection (HIV-1/MN [1]): - | effect in pre-infection (pretreatment) assay (HIV-1/MN [1]): effective | effect in neutralization assay (HIV-1/MN [2]): effective | Toxicity at 5 μg/ml (MT-2 cells): - | Toxicity at 50 μg/ml (MT-2 cells): - | Toxicity at .5 μg/ml (MT-2 cells): -

C[N+](C)(C)CC[N+](C)(C)C1C2CC3CC(C2)CC1C3 (stereo not shown) [Compound 4, N-2-adamantyl-N,N,N',N',N'-pentamethyl ethane-1,2-bis ammonium diiodide]
Toxicity at 5 μg/ml (MT-2 cells): - | Toxicity at 50 μg/ml (MT-2 cells): - | Toxicity at 500 μg/ml (MT-2 cells): - | Toxicity at .5 μg/ml (MT-2 cells): -

CC12CC3(C)CC(O)(C1)CC(O)(C2)C3 [Compound 2, 1,3-dihydroxy-5,7-dimethyladamantane]
MN Post-Infection (HIV-1/MN [1]; HIV-1/MN, post-infection): +++ | effect in both pre-infection and post-infection assays (HIV-1/MN [1]; HIV-1MN, words): effective | effect in pre-infection (pretreatment) assay (HIV-1/MN [1]; MN, pre-infection, words): effective | effect in post-infection assay (HIV-1/MN [1]; post-infection, words): effective | effect in neutralization assay (HIV-1/MN [2]; neutralization, words): effective | Toxicity at 5 μg/ml (MT-2 cells): - | Toxicity at 50 μg/ml (MT-2 cells): - | Toxicity at .5 μg/ml (MT-2 cells): -
